The values that follow come from patent US12421207B2 (CMG Pharmaceutical Co., Ltd., priority 2022, dated 2025).

Assay [1] relates to HCC827/GR cells. Description: Cell viability assay (CellTiter-Glo 2.0), gefitinib-resistant HCC827/GR cells. In kind it is cell-based, human. The following applies: Homo sapiens, read-out: Relative cell viability, IC50 HCC827GR.
Source text: (§1) To explore c-MET and AXL mechanisms of EGFR TKI resistance, resistant cells of the EGFR TKI hypersensitive EGFR exon 19 mutant NSCLC cell line, HCC827 and PC9 were generated by exposing these cells to increasing concentrations of EGFR TKI for over 3 months.
The human cell line HCC827 was purchased from the American Type Culture Collection (Manassas, VA), and the PC9 cell line was obtained from RIKEN Cell Bank (Ibaraki, Japan). […] Gefitinib-resistant cells were referred to as HCC827/GR. […] Osimertinib-resistant cells were referred to as HCC827/OR.
(§2) Cell viability assays were carried out by plating 1,000 cells per well of HCC827 or PC9 resistant cells, respectively, into white transparent-bottom 384-well plates. The cells were treated with each TKI across a 10-dose range from 1 nM to 10,000 nM. After 72 h of drug treatment, cell viability was measured using the CellTiter-Glo 2.0 assay (Promega, Madison, WI).
as §2
(In general: ATP-based viability assays read luminescence as a measure of living cells.)

Assay [2] relates to PC9/ER cells. The assay is described as follows: Cell viability assay (CellTiter-Glo 2.0), erlotinib-resistant PC9/ER cells. It counts as cell-based. Particulars: Homo sapiens, PC-9/ER; Table 2; 72 h drug treatment, EGFR TKI resistant cells, combination with EGFR TKI; read-out: Relative cell viability; IC50 PC9ER.
Source text: as §1
(§3) Gefitinib-resistant cells were referred to as HCC827/GR. […] Osimertinib-resistant cells were referred to as HCC827/OR.

In assay [3] the test system is HCC827/OR cells. The assay is described as follows: Cell viability assay (CellTiter-Glo 2.0), osimertinib-resistant HCC827/OR cells. The following applies: Homo sapiens, HCC827; Table 2; 72 h drug treatment, EGFR TKI resistant cells, combination with EGFR TKI; read-out: Relative cell viability; IC50 HCC827OR. It counts as cell-based, human.
Source text: as §1, §3

Assay [4] relates to HCC827/ER cells. Description: Cell viability assay (CellTiter-Glo 2.0), erlotinib-resistant HCC827/ER cells. The following applies: Homo sapiens, HCC827ER, Table 2, 72 h drug treatment, EGFR TKI resistant cells, combination with EGFR TKI, read-out: Relative cell viability. It counts as cell-based, human.
Source text: as §1, §3

Setting [5] is: HCC827, Table 2, 72 h drug treatment, EGFR TKI resistant cells, combination with EGFR TKI.

Read-outs that look alike come from different tables or passages of the source.

For the compound `CC(C)n1cc(C(=O)Nc2ccc(Oc3ccnc(N)c3C#CC(=O)N3CCNCC3)c(F)c2)c(=O)n(-c2ccc(F)cc2)c1=O` [Example 1, N-(4-(2-amino-3-(3-oxo-3-(piperazin-1-yl)prop-1-ynyl)pyridin-4-yloxy)-3-fluorophenyl)-3-(4-fluorophenyl)-1-isopropyl-2,4-dioxo-1,2,3,4-tetrahydropyrimidine-5-carboxamide], the IC50 in assay [1] (setting [5]), in assay [2], in assay [3] and in assay [4] was less than 10 nM throughout.
Turning to `COCCN1CCN(C(=O)C#Cc2c(Oc3ccc(NC(=O)c4cn(C(C)C)c(=O)n(-c5ccc(F)cc5)c4=O)cc3F)ccnc2N)CC1` [Example 2, N-(4-(2-amino-3-(3-(4-(2-methoxyethyl)piperazin-1-yl)-3-oxoprop-1-ynyl)pyridin-4-yloxy)-3-fluorophenyl)-3-(4-fluorophenyl)-1-isopropyl-2,4-dioxo-1,2,3,4-teterahydropyrimidine-5-carboxamide], the IC50 in assay [1] (setting [5]), in assay [2], in assay [3] and in assay [4] was less than 10 nM throughout.
Turning to `CC(C)n1cc(C(=O)Nc2ccc(Oc3ccnc(N)c3/C=C/C(=O)N3CCNCC3)c(F)c2)c(=O)n(-c2ccc(F)cc2)c1=O` [Example 3, (E)-N-(4-(2-amino-3-(3-oxo-3-(piperazin-1-yl)prop-1-enyl)pyridin-4-yloxy)-3-fluorophenyl)-3-(4-fluorophenyl)-1-isopropyl-2,4-dioxo-1,2,3,4-tetrahydropyrimidine-5-carboxamide], the IC50 in assay [1] (setting [5]) was less than 100 nM; in assay [2], less than 1000 nM; in assay [3], less than 100 nM; in assay [4], less than 100 nM.
For `COCCN1CCN(C(=O)/C=C/c2c(Oc3ccc(NC(=O)c4cn(C(C)C)c(=O)n(-c5ccc(F)cc5)c4=O)cc3F)ccnc2N)CC1` [Example 4, (E)-N-(4-(2-amino-3-(3-(4-(2-methoxyethyl)piperazin-1-yl)-3-oxoprop-1-enyl)pyridin-4-yloxy)-3-fluorophenyl)-3-(4-fluorophenyl)-1-isopropyl-2,4-dioxo-1,2,3,4-tetrahydropyrimidine-5-carboxamide], the IC50 in assay [1] (setting [5]) was less than 10 nM; in assay [2], less than 1000 nM; in assay [3], less than 10 nM; in assay [4], less than 10 nM.
Consider `CC(C)n1cc(C(=O)Nc2ccc(Oc3ccnc(N)c3C#N)c(F)c2)c(=O)n(-c2ccc(F)cc2)c1=O` [Example 5, N-(4-(2-amino-3-cyanopyridin-4-yloxy)-3-fluorophenyl)-3-(4-fluorophenyl)-1-isopropyl-2,4-dioxo-1,2,3,4-tetrahydropyrimidine-5-carboxamide], for which the IC50 was less than 100 nM in assay [1] (setting [5]), less than 1000 nM in assay [2], less than 100 nM in assay [3] and less than 10 nM in assay [4].
For the compound `CC(C)n1cc(C(=O)Nc2ccc(Oc3ccnc(N)c3Cl)c(F)c2)c(=O)n(-c2ccc(F)cc2)c1=O` [Example 6, N-(4-(2-amino-3-chloropyridin-4-yloxy)-3-fluorophenyl)-3-(4-fluorophenyl)-1-isopropyl-2,4-dioxo-1,2,3,4-tetrahydropyrimidine-5-carboxamide], the IC50 in assay [1] (HCC827, 72 h) is less than 100 nM.
In the case of `CC(C)n1cc(C(=O)Nc2ccc(Oc3ccnc(N)c3-c3cnn(C)c3)c(F)c2)c(=O)n(-c2ccc(F)cc2)c1=O` [Example 7, N-(4-(2-amino-3-(1-methyl-1H-pyrazol-4-yl)pyridin-4-yloxy)-3-fluoropehynl)-1-isopropyl-2,4-dioxo-1,2,3,4-tetrahydropyrimidine-5-carboxamide], the IC50 is less than 10 nM in assay [1] (setting [5]), less than 1000 nM in assay [2], less than 10 nM in assay [3] and less than 10 nM in assay [4].
As for `CC(C)n1cc(C(=O)Nc2ccc(Oc3ccnc(N)c3C#Cc3ccccn3)c(F)c2)c(=O)n(-c2ccc(F)cc2)c1=O` [Example 9, N-(4-(2-amino-3-(pyridin-2-ylethnyl)pyridin-4-yloxy)-3-fluorophenyl)-3-(4-fluorophenyl)-1-isopropyl-2,4-dioxo-1,2,3,4-tetrahydropyrimidine-5-carboxamide], the IC50 in assay [1] (setting [5]) is less than 100 nM; in assay [2], more than 10000 nM; in assay [3] it was less than 100 nM; in assay [4], less than 100 nM.
Consider `CC(C)n1cc(C(=O)Nc2ccc(Oc3ccnc(N)c3-c3ccc(Oc4ccccc4)cc3)c(F)c2)c(=O)n(-c2ccc(F)cc2)c1=O` [Example 10], for which the IC50 was less than 1000 nM in assay [1] (setting [5]), less than 100 nM in assay [2], less than 1000 nM in assay [3] and less than 1000 nM in assay [4].
For `Cc1noc(C)c1-c1c(Oc2ccc(NC(=O)c3cn(C(C)C)c(=O)n(-c4ccc(F)cc4)c3=O)cc2F)ccnc1N` [Example 11], the IC50 in assay [1] (setting [5]), in assay [2], in assay [3] and in assay [4] was less than 10000 nM each time.
`CCCn1cc(-c2c(Oc3ccc(NC(=O)c4cn(C(C)C)c(=O)n(-c5ccc(F)cc5)c4=O)cc3F)ccnc2N)cn1` [Example 12, N-(4-(2-amino-3-(1-propyl-1H-pyrazol-4-yl)pyridine-4-yloxy)-3-fluorophenyl)-3-(4-fluorophenyl)-1-isopropyl-2,4-dioxo-1,2,3,4-tetrahydropyrimidine-5-carboxamide]: the IC50 in assay [1] (setting [5]) is less than 100 nM; in assay [2] it was less than 1000 nM; in assay [3], less than 10 nM; in assay [4], less than 100 nM.
On to `CCCn1cc(C#Cc2c(Oc3ccc(NC(=O)c4cn(C(C)C)c(=O)n(-c5ccc(F)cc5)c4=O)cc3F)ccnc2N)cn1` [Example 13, N-(4-(2-amino-3-((1-propyl-1H-pyrazol-4-yl)ethynyl)pyridin-4-yloxy)-3-fluorophenyl)-3-(4-fluorophenyl)-1-isopropyl-2,4-dioxo-1,2,3,4-tetrahydropyrimidine-5-carboxamide], for which the IC50 in assay [1] (setting [5]), in assay [2], in assay [3] and in assay [4] was less than 10 nM in each case.
As to `CC(C)n1cc(C(=O)Nc2ccc(Oc3ccnc(N)c3C#CC(=O)N3CCOCC3)c(F)c2)c(=O)n(-c2ccc(F)cc2)c1=O` [Example 14, N-(4-(2-amino-3-(3-morpholino-3-oxoprop-1-ynyl)pyridin-4-yloxy)-3-fluorophenyl)-3-(4-fluorophenyl)-1-isopropyl-2,4-dioxo-1,2,3,4-tetrahydropyrimidine-5-carboxamide], the IC50 in assay [1] (setting [5]) is less than 100 nM; in assay [2], less than 10 nM; in assay [3], less than 10 nM; in assay [4], less than 10 nM.
For the compound `CC(C)n1cc(C(=O)Nc2ccc(Oc3ccnc(N)c3C#CC3CCNCC3)c(F)c2)c(=O)n(-c2ccc(F)cc2)c1=O` [Example 15, N-(4-(2-amino-3-(piperidin-4-ylethynyl)pyridin-4-yloxy)-3-fluorophenyl)-3-(4-fluorophenyl)-1-isopropyl-2,4-dioxo-1,2,3,4-tetrahydropyrimidine-5-carboxamide], the IC50 in assay [1] (setting [5]) is less than 100 nM; in assay [2], less than 10 nM; in assay [3] it was less than 10 nM; in assay [4], less than 100 nM.
With `COCCN1CCC(C#Cc2c(Oc3ccc(NC(=O)c4cn(C(C)C)c(=O)n(-c5ccc(F)cc5)c4=O)cc3F)ccnc2N)CC1` [Example 16], the IC50 in assay [1] (setting [5]), in assay [2], in assay [3] and in assay [4] was less than 10 nM in each case.
Regarding `CC(C)n1cc(C(=O)Nc2ccc(Oc3ccnc(N)c3C#CCN3CCNCC3)c(F)c2)c(=O)n(-c2ccc(F)cc2)c1=O` [Example 17], the IC50 in assay [1] (setting [5]), in assay [2], in assay [3] and in assay [4] was less than 100 nM throughout.
As for `COCCN1CCN(CC#Cc2c(Oc3ccc(NC(=O)c4cn(C(C)C)c(=O)n(-c5ccc(F)cc5)c4=O)cc3F)ccnc2N)CC1` [Example 18, N-(4-(2-amino-3-(3-(4-(2-methoxyethyl)piperazin-1-yl)prop-1-ylny)pyridin-4-yloxy)-3-fluorophenyl)-3-(4-fluorophenyl)-1-isopropyl-2,4-dioxo-1,2,3,4-tetrahydropyrimidine-5-carboxamide], the IC50 in assay [1] (setting [5]) was less than 100 nM; in assay [2] it was less than 100 nM; in assay [3] it was less than 10 nM; in assay [4], less than 10 nM.
Regarding `CC(C)n1cc(C(=O)Nc2ccc(Oc3ccnc(N)c3C#CC(C)(C)N3CCNCC3)c(F)c2)c(=O)n(-c2ccc(F)cc2)c1=O` [Example 19, N-(4-(2-amino-3-(3-methyl-3-(piperazin-1-yl)but-1-ynyl)pyridin-4-yloxy)-3-fluorophenyl)-3-(4-fluorophenyl)-1-isopropyl-2,4-dioxo-1,2,3,4-tetrahydropyridmidine-5-carboxamide], the IC50 was less than 100 nM in assay [1] (setting [5]), less than 100 nM in assay [2], less than 100 nM in assay [3] and less than 10 nM in assay [4].
